Reference: patent US10246453B2, “Benzenesulfonamide compounds and their use as therapeutic agents” (Xenon Pharmaceuticals Inc., priority 2016, dated 2019)
Counter-ions that a name gives are not always drawn. Like-named read-outs stand apart in the source and are kept apart here.

What was measured:
[1] = target: NaV1.1 (Homo sapiens (Human), UniProt P35498); experiment: Sodium Influx Assay (Flux), NaV1.1; assay type: cell-based; settings: Trex HEK293 cells, ANG2 dye; arithmetic mean
[2] = target: NaV1.6 (Homo sapiens (Human), UniProt Q9UQD0); experiment: Sodium Influx Assay (Flux), NaV1.6
[3] = target: NaV1.5 (Homo sapiens (Human), UniProt Q14524); experiment: Sodium Influx Assay (Flux), NaV1.5; settings: read-out: Flux NaV1.5 IC50; Trex HEK293 cells, ANG2 dye; arithmetic mean
Sequence of NaV1.5 (Q14524 other isoform, or with tags, fused parts or gaps): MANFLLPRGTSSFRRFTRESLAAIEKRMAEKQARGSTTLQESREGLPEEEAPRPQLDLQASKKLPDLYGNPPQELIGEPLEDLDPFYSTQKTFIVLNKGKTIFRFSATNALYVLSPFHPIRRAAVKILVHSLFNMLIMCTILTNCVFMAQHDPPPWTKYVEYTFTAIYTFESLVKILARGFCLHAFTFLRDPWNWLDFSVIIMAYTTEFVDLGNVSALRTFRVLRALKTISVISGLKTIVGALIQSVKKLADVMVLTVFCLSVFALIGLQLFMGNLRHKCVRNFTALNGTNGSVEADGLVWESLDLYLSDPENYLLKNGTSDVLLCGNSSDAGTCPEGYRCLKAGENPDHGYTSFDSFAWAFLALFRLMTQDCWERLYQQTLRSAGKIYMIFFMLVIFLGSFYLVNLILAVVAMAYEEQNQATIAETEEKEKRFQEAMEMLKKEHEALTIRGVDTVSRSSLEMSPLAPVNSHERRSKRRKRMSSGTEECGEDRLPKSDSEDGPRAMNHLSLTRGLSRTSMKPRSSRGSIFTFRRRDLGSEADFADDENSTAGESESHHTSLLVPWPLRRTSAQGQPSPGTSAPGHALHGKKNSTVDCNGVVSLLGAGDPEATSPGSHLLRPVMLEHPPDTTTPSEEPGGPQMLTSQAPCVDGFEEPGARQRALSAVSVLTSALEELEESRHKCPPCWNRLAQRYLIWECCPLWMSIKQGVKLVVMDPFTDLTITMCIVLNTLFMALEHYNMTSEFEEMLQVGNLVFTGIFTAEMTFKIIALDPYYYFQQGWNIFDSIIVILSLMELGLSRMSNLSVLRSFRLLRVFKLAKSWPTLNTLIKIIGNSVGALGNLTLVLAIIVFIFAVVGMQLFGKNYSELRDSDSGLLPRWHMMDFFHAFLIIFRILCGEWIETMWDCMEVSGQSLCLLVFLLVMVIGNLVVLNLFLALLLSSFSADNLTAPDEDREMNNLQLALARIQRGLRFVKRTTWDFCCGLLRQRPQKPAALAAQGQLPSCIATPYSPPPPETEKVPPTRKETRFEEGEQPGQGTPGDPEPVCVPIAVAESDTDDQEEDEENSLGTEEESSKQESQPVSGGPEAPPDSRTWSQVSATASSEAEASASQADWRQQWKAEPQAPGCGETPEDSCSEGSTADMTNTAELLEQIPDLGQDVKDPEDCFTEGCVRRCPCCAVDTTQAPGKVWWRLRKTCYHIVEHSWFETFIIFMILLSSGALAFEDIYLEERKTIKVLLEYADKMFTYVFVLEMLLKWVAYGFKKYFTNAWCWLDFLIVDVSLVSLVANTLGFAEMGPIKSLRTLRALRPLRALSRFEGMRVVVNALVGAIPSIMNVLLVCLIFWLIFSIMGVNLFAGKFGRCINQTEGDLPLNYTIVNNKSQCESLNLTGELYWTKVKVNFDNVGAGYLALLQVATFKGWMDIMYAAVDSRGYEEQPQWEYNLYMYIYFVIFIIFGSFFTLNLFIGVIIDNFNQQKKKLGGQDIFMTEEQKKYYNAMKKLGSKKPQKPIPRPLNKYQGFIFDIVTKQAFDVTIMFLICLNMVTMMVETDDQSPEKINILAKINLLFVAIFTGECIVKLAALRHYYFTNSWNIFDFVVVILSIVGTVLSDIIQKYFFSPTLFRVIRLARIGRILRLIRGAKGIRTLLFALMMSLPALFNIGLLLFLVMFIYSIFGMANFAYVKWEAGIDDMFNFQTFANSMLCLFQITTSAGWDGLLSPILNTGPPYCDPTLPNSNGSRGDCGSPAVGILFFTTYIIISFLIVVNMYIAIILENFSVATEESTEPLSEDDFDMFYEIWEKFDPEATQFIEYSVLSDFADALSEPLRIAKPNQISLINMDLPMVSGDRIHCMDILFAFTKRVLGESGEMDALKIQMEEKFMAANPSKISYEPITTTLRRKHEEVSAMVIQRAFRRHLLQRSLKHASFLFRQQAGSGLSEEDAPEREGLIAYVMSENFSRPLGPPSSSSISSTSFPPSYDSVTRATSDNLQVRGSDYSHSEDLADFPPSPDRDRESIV

[4] = read-out: Flux NaV1.6 IC50, Trex HEK293 cells, ANG2 dye, arithmetic mean

| Structure (SMILES) | IC50 [1] [µM] | IC50 [2, 4] [µM] | IC50 [3] [µM] | IC50 [2] [µM] |
| --- | --- | --- | --- | --- |
| C[C@H](c1ccccc1)N1CCC(Oc2ccc(S(=O)(=O)Nc3ccon3)cc2Cl)CC1 [Example 305, (R)-3-chloro-N-(isoxazol-3-yl)-4-((1-(1-phenylethyl)piperidin-4-yl)oxy)benzenesulfonamide formate] | – | – | > 30 | – |
| C[C@@H]1CN(Cc2ccccc2F)CC[C@H]1Oc1ccc(S(=O)(=O)Nc2nccs2)cc1Cl (relative stereo) [Example 10B, 3-chloro-4-((trans-1-(2-fluorobenzyl)-3-methylpiperidin-4-yl)oxy)-N-(thiazol-2-yl)benzenesulfonamide] | – | – | – | 1.16 |
| CC(c1ccccc1)N1CCC(Oc2ccc(S(=O)(=O)Nc3nccs3)cc2Cl)CC1 (centres unmarked) [Example 52, 3-chloro-4-((1-(1-phenylethyl)piperidin-4-yl)oxy)-N-(thiazol-2-yl)benzenesulfonamide] | – | 0.305 | 14.4 | – |
| C[C@@H]1CN(Cc2ccccc2F)CC[C@@H]1Oc1ccc(S(=O)(=O)Nc2nccs2)cc1Cl (relative stereo) [Example 10A, 3-chloro-4-((cis-1-(2-fluorobenzyl)-3-methylpiperidin-4-yl)oxy)-N-(thiazol-2-yl)benzenesulfonamide] | – | – | – | 1.27 |
| Cc1cc(S(=O)(=O)Nc2cscn2)ccc1N(C)[C@H]1CCN(Cc2ccccc2)C1 [Example 284, (S)-4-((1-benzylpyrrolidin-3-yl)(methyl)amino)-3-methyl-N-(thiazol-4-yl)benzenesulfonamide 2,2,2-trifluoroacetate] | 10.5 | 0.718 | – | – |
| O=S(=O)(Nc1cscn1)c1ccc(O[C@@H]2C[C@H]3CC[C@@H](C2)N3Cc2cccc(C(F)F)c2)c(Cl)c1 [Example 256, 3-chloro-4-(((1R,3s,5S)-8-(3-(difluoromethyl)benzyl)-8-azabicyclo[3.2.1]octan-3-yl)oxy)-N-(thiazol-4-yl)benzenesulfonamide] | – | – | 6.72 | – |

Further lines, with some results ahead:

| IC50 [1] [µM] | IC50 [2, 4] [µM] | Structure (SMILES) | IC50 [3] [µM] | IC50 [2] [µM] |
| --- | --- | --- | --- | --- |
| > 30 | 0.185 | Cc1cc(S(=O)(=O)Nc2cscn2)c(F)cc1N(C)[C@H]1CCN([C@H]2CCc3ccccc32)C1 [Example 128, 4-(((S)-1-((S)-2,3-dihydro-1H-inden-1-yl)pyrrolidin-3-yl)(methyl)amino)-2-fluoro-5-methyl-N-(thiazol-4-yl)benzenesulfonamide] | 22.5 | – |
| – | 3.77 | Cc1cc(S(=O)(=O)Nc2cscn2)c(F)cc1N(C)[C@@H]1CCN(Cc2ccccc2)C1 [Example 272, (R)-4-((1-benzylpyrrolidin-3-yl)(methyl)amino)-2-fluoro-5-methyl-N-(thiazol-4-yl)benzenesulfonamide] | – | – |
| – | 0.211 | Cc1cc(S(=O)(=O)Nc2cscn2)c(F)cc1N(C)[C@H]1CCN(Cc2cccc(F)c2)C1 [compound 157, (S)-2-fluoro-4-((1-(3-fluorobenzyl)pyrrolidin-3-yl)(methyl)amino)-5-methyl-N-(thiazol-4-yl)benzenesulfonamide] | 18.6 | – |
| 7.53 | 3.2 | COc1cccc(CN2CC[C@H](N(C)c3cc(F)c(S(=O)(=O)Nc4cscn4)cc3Cl)C2)c1 [Example 219, (S)-5-chloro-2-fluoro-4-((1-(3-methoxybenzyl)pyrrolidin-3-yl)(methyl)amino)-N-(thiazol-4-yl)benzenesulfonamide] | – | – |
| 17.9 | 0.258 | Cc1cc(S(=O)(=O)Nc2cscn2)c(F)cc1N(C)[C@H]1CCN(Cc2ccccc2O)C1 [Example 113, (S)-2-fluoro-4-((1-(2-hydroxybenzyl)-pyrrolidin-3-yl)(methyl)amino)-5-methyl-N-(thiazol-4-yl)benzenesulfonamide] | – | – |
| 27.8 | 2.1 | O=S(=O)(Nc1cscn1)c1cc(Cl)c(OC2CCN(Cc3ccccc3)CC2)cc1F [Example 238, 4-((1-benzylpiperidin-4-yl)oxy)-5-chloro-2-fluoro-N-(thiazol-4-yl)benzenesulfonamide 2,2,2-trifluoroacetate] | – | – |
